Square brackets hold non-standard residues; d marks the D form. Arg(Me) = CNC(=N)NCCC[C@H](N)C(=O)O; Hyp = O=C(O)[C@@H]1C[C@@H](O)CN1; azaGly = NNC(=O)O
Columns and labels:
[1] = system: Dunning R3327-G cells; assay: Androgen-independent antitumor effects, Dunning R3327-G cells implanted in orchiectomized Copenhagen rats; assay type: in vivo, rat; details: 50 nmol/kg/W, subcutaneous ALZET pump; day 52 following the start of dosing; compared with solvent group
Description: Dunning R3327-G cells, an androgen-sensitive rat prostate cancer cell line, were implanted into orchiectomized Copenhagen rats, and the androgen-independent antitumor effects by Compound No. 550 and Compound No. 723 were investigated.
R3327-G cells (7×10^6) were implanted subcutaneously in 10-week-old orchiectomized male Copenhagen rats. Fifty days after implantation, the rats were divided into groups based on the tumor volume, and were then assigned to a Compound 550—50 nmol/kg/W group, a Compound No. 723—50 nmol/kg/W group, and a solution group (each group consisting of 10 animals). The dose was calculated based on the mean weight of the animals on the day that dosing was begun. Administration was carried out by subcutaneous implantation in the dorsal region using an ALZET pump. The tumor diameter was measured on days 50, 65, 71, 78, 91 and 102 following cell implantation (days 0, 15, 21, 28, 41 and 52 following the start of dosing). The tumor volume (mm^3) was calculated as follows: major axis×minor axis^2÷2. Owing to deaths and the euthanization of animals in the course of the tests, on day 52 following the start of dosing (day 102 after transplantation), only six animals remained in the solution group and only seven animals remained in the Compound No. 723 group.

[2] = system: human prostate cancer cell line VCaP; assay: Growth-inhibitory activity on VCaP spheroids (CellTiter-Glo); assay type: cell-based; details: 10% DCC-FCS
Method: Evaluation of the growth-inhibitory activity of the metastin peptide derivative using human prostate cancer cell line VCaP
Regarding Compound No. 723, the inhibitory activity on androgen-independent growth of human prostate cancer cell line VCaP (CRL-2876, American Type Culture Collection) was evaluated. […] in the state of three-dimensional culture (spheroid) was used in the evaluation. Specifically, VCaP cells were suspended in a DMEM medium (Ref. No. 11995, Invitrogen) containing 10% FCS (Cat. No. 171012, Cell Culture Bioscience) to set the concentration to 1.5×10^6 cells/mL. The obtained suspension was spotted on a cover of a tissue culture dish (Ref. No. 353003, FALCON) (20 μL for each) to perform Hanging drop culture (3×10^4 cells/drop). In order to prevent drying, 10 mL of DPBS (Ref. No. 14190, Invitrogen) was added to the culture dish. […]
(§1) Cell growth was quantified 9 days after the start of the treatment with Compound No. 723 by measuring the chemical luminescence evoked by cellular ATP using CellTiter-Glo Luminescent Cell Viability Assay (Promega). Wallac 1420 ARVO MX/Light (Parkin Elmer) was used for the measurement of the luminescence intensity.

[3] = system: human prostate cancer cell line 22Rv1; assay: Growth-inhibitory activity on 22Rv1 spheroids (CellTiter-Glo); assay type: cell-based; details: 10% DCC-FCS
Method: Evaluation of the growth-inhibitory activity of the metastin peptide derivative using human prostate cancer cell line 22Rv1
Regarding Compound No. 723, the growth-inhibitory activity on androgen-independent human prostate cancer cell line 22Rv1 (CRL-2505, American Type Culture Collection) was evaluated. […] in the state of three-dimensional culture (spheroid) was used in the evaluation. Specifically, 22Rv1 cells were suspended in a RPMI1640 medium (Ref. No. 22400, Invitrogen) containing 10% FCS (Cat. No. 171012, Cell Culture Bioscience) to set the concentration to 1.5×10^6 cells/mL. The obtained suspension was spotted on a cover of a tissue culture dish (Ref. No. 353003, FALCON) (20 μL for each) to perform Hanging drop culture ([…]). In order to prevent drying, 10 mL of DPBS (Ref. No. 14190, Invitrogen) was added to the culture dish. […]
as §1

[4] = system: DU145; assay: Antitumor activity in DU145 tumor-bearing male rat model; assay type: in vivo; details: microcapsule powder s.c. 10, 30 and 60 days after transplantation; No. 550 10 mg/kg, No. 723 1 or 10 mg/kg; 74 days after transplantation; vs surgically castrated group
Method: Evaluation of antitumor activity of the metastin peptide derivative in DU145 tumor-bearing male rat model
Antitumor activity of Compound No. 550 and Compound No. 723 against a DU145 tumor-bearing male rat model was evaluated. Specifically, 1×10^6 cells/100 μL suspension of DU145 (androgen-independent cell line, GPR54 highly expressing cell line, ATCC) was mixed with 100 μL of basement membrane matrix: Matrigel (trade name, BD Biosciences), and the obtained mixture was transplanted under the abdominal skin of 7-week-old F344/NJc1-rnu/rnu male rats (CLEA Japan, Inc.) which had been etherized. 10 days after the transplantation, the rats in which the volume of subcutaneous tumor reached 200 mm^3 were divided into 4 groups (Groups A-D, 10 rats for each group). […]
Regarding Group D, the rats were surgically castrated and used as the negative control group. […] 74 days after the transplantation of DU145 cells, the tumor volume (longer diameter×shorter diameter×shorter diameter/2) was measured. […]

| Substance | antitumor effects (tumor volume) [1] | Luminescence intensity ([2]; 1 μM supplied every 12 hours for 8 days, 9 days after start of treatment, cellular ATP, n = 18, Control 564458 ± 27628) | androgen-independent growth of human prostate cancer cells (VCaP) ([2]; 1 μM, vs control) | Luminescence intensity ([3]; 1 μM supplied every 12 hours for 8 days, 9 days after start of treatment, cellular ATP, n = 18, Control 483469 ± 55917) | growth of androgen-independent human prostate cancer cells (22Rv1) in the absence of androgen ([3]; 1 μM, vs control) | antitumor effects (tumor volume) [4] |
| --- | --- | --- | --- | --- | --- | --- |
| Ac-D-Tyr-Hyp-Asn-Thr-Phe-AzaGly-Leu-Arg(Me)-Trp-NH2 (Ac-[dY][Hyp]NTF[azaGly]L[Arg(Me)]W-NH2) [Compound No. 723] | significant antitumor effects | 507191 ± 73146 | significantly reduced the androgen-independent growth | 401291 ± 40565 | significantly reduced the growth | antitumor effects more than the surgical castration |
| Ac-[dY][dW]NTF[azaGly]L[Arg(Me)]W-NH2 [Compound No. 550] | significant antitumor effects | – | – | – | – | antitumor effects more than the surgical castration |
